This is an account of results in ChEMBL document CHEMBL5385884, “Expanding role of CXCR2 and therapeutic potential of CXCR2 antagonists in inflammatory diseases and cancers” (Eur J Med Chem, 2023).

Data set [1] addresses C-X-C chemokine receptor type 4 (Homo sapiens, UniProt P61073). Briefly: Antagonist activity at SDF-1-activated CXCR4 (unknown origin) overexpressed in human U2OS cells preincubated for 30 mins followed by SDF-1 addition measured after 5 hrs by beta-lactamase reporter gene assay. It counts as functional, cell-based. (Reporter assays use an easily measured gene product as a stand-in for the process of interest.)

Data set [2] has as its target T1, C-X-C chemokine receptor type 2 (Homo sapiens, UniProt P25025).
T1 sequence (P25025 whole entry): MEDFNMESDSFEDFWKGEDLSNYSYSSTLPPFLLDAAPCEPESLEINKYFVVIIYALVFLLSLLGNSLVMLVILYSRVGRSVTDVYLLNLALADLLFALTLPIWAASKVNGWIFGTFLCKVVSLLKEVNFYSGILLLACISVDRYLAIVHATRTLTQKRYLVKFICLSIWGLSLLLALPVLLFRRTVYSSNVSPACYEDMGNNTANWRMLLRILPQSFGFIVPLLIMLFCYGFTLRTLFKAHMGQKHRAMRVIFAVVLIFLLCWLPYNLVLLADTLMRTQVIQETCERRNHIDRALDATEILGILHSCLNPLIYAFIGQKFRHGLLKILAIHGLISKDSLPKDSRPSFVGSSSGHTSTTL
Briefly: Antagonist activity at CXCL8-activated CXCR2 (unknown origin) overexpressed in human U2OS cells preincubated for 30 mins followed by CXCL8 addition measured after 5 hrs by beta-lactamase reporter gene assay. The data set is classed as functional, cell-based.

Data set [3] can be described thus: Effective half life in human. The data set is classed as ADME. To be noted: read-out: t1/2eff (converted).
The nature of data set [4]: Intrinsic clearance in human hepatocytes measured per million cells at 100 uM incubated upto 90 mins by LCMS/MS analysis. The data set is classed as ADME, cell-based, Hepatocyte. To be noted: read-out: CLH.
Data set [5] addresses T1, C-X-C chemokine receptor type 2. Briefly: Antagonist activity at CXCR2 (unknown origin). The data set is classed as functional.

C-X-C chemokine receptor type 4, sequence (P61073 whole entry): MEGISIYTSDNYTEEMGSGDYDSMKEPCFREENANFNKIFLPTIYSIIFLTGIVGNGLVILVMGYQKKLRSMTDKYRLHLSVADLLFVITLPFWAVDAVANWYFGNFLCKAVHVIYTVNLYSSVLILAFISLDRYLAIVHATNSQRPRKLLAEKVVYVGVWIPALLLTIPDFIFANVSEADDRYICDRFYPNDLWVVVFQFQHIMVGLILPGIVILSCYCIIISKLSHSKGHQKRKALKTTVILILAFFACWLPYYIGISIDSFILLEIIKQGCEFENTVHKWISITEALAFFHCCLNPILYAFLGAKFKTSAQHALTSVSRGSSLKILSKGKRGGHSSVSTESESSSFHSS

Usually IC50 stands for the point on the concentration scale where inhibition reaches its midpoint. A higher IC50 goes with lower potency. On to `CC(=O)c1c(C)oc2c1cc(NS(=O)(=O)c1ccc(C(C)(C)C)cc1)c1ccccc12`, for which the IC50 in data set [1] was above 50000 nM.

On to `COc1cc(NS(=O)(=O)c2ccc(C)cc2)c2ncccc2c1`, for which, in data set [2], it took 400 nM to reach half-maximal inhibition (IC50).

For the compound `C[C@@H](Oc1cc(NS(=O)(=O)N2CCC2)nc(SCc2cccc(F)c2F)n1)[C@@H](O)CO`, in data set [3], the half-life is 4 h. For the same compound, the hepatocyte CLint at 100 µM in data set [4] is below 5 µL/min/1e6 cells.

Take `COc1cc(NS(=O)(=O)c2cccc3nsnc23)c2ncccc2c1`: the IC50 in data set [2] came to 360 nM; in data set [1], 590 nM.

In the case of `C[C@@H](C(=O)NS(C)(=O)=O)c1ccc(OS(=O)(=O)C(F)(F)F)cc1` [LADARIXIN], the IC50 in data set [5] is 0.7 nM.

In data set [5], `O=C(Nc1ccc(F)cc1)c1cnc(SCc2cc(OC(F)(F)F)ccc2B(O)O)nc1` [SX-682] returned an IC50 of 22 nM.
